Test results from the CheMixHub viscosity set.
Values joined by “and” are separate entries in the source; they are usually repeats but may differ in a detail not shown here. Identical values can stand only once. ± gives the uncertainty stated by the source.

Assay: xn = mol fraction of the nth substance listed

C1CCOC1 + CC(C)CC(C)(C)C
viscosity [mPa·s], 101 kPa
Details	x1 = 0.1001	x1 = 0.2	x1 = 0.3	x1 = 0.4	x1 = 0.5	x1 = 0.6	x1 = 0.7	x1 = 0.8	x1 = 0.9
298.15 K	0.479 ± 0.013	0.477 ± 0.013	0.475 ± 0.013	0.474 ± 0.013	0.473 ± 0.013	0.472 ± 0.013	0.472 ± 0.013	0.471 ± 0.013	0.471 ± 0.013
308.15 K	0.433 ± 0.012	0.432 ± 0.012	0.432 ± 0.012	0.431 ± 0.012	0.431 ± 0.012	0.432 ± 0.012	0.432 ± 0.012	0.432 ± 0.012	0.432 ± 0.012

CC(C)=O + CC(C)CC(C)(C)C
298.15 K, 101 kPa
Details	viscosity [mPa·s]
x1 = 0.0643	0.456 ± 0.004
x1 = 0.1001	0.448 ± 0.004
x1 = 0.2004	0.428 ± 0.003
x1 = 0.2297	0.422 ± 0.003
x1 = 0.2934	0.417 ± 0.003
x1 = 0.3408	0.404 ± 0.003
x1 = 0.3994	0.395 ± 0.003
x1 = 0.5006	0.378 ± 0.003
x1 = 0.5566	0.367 ± 0.003
x1 = 0.5927	0.36 ± 0.003
x1 = 0.7032	0.341 ± 0.003
x1 = 0.7941	0.327 ± 0.003
x1 = 0.8898	0.314 ± 0.003

COc1ccccc1 + CC(C)CO
viscosity [mPa·s], 101.33 kPa
Details	x1 = 0.1001	x1 = 0.2001	x1 = 0.2999	x1 = 0.4001	x1 = 0.5	x1 = 0.6001	x1 = 0.7	x1 = 0.8001	x1 = 0.9002
303.15 K	1.789 ± 0.016	1.326 ± 0.012	1.157 ± 0.01	1.069 ± 0.01	1.011 ± 0.009	0.969 ± 0.009	0.951 ± 0.008	0.934 ± 0.008	0.921 ± 0.008
313.15 K	1.355 ± 0.012	1.064 ± 0.01	0.933 ± 0.009	0.862 ± 0.008	0.845 ± 0.008	0.831 ± 0.007	0.816 ± 0.007	0.803 ± 0.007	0.792 ± 0.007
323.15 K	1.063 ± 0.01	0.829 ± 0.008	0.768 ± 0.007	0.743 ± 0.007	0.736 ± 0.007	0.731 ± 0.007	0.718 ± 0.007	0.708 ± 0.006	0.697 ± 0.006

C1CCOC1 + CC(C)O
101 kPa
Details	viscosity
298.15 K, x1 = 0.05	1.706 ± 0.018 mPa·s
298.15 K, x1 = 0.1	1.445 ± 0.017 mPa·s
298.15 K, x1 = 0.15	1.248 ± 0.016 mPa·s
298.15 K, x1 = 0.2001	1.113 ± 0.015 mPa·s
298.15 K, x1 = 0.25	0.988 ± 0.014 mPa·s
298.15 K, x1 = 0.3	0.896 ± 0.014 mPa·s
298.15 K, x1 = 0.35	0.812 ± 0.014 mPa·s
298.15 K, x1 = 0.4	0.752 ± 0.013 mPa·s
298.15 K, x1 = 0.45	0.703 ± 0.013 mPa·s
298.15 K, x1 = 0.5	0.659 ± 0.013 mPa·s and 0.6917 ± 0.018 mPa·s
298.15 K, x1 = 0.55	0.623 ± 0.013 mPa·s
298.15 K, x1 = 0.6	0.594 ± 0.013 mPa·s
298.15 K, x1 = 0.65	0.567 ± 0.013 mPa·s
298.15 K, x1 = 0.7	0.545 ± 0.013 mPa·s
298.15 K, x1 = 0.75	0.526 ± 0.013 mPa·s
298.15 K, x1 = 0.8	0.511 ± 0.013 mPa·s
298.15 K, x1 = 0.85	0.497 ± 0.013 mPa·s
298.15 K, x1 = 0.9	0.488 ± 0.013 mPa·s
298.15 K, x1 = 0.95	0.48 ± 0.013 mPa·s
298.15 K, x2 = 0.1211	0.49 ± 0.014 mPa·s
298.15 K, x2 = 0.2273	0.525 ± 0.014 mPa·s
298.15 K, x2 = 0.3055	0.556 ± 0.015 mPa·s
298.15 K, x2 = 0.3798	0.587 ± 0.016 mPa·s
298.15 K, x2 = 0.4846	0.654 ± 0.018 mPa·s
298.15 K, x2 = 0.5812	0.745 ± 0.02 mPa·s
298.15 K, x2 = 0.6948	0.899 ± 0.024 mPa·s
298.15 K, x2 = 0.7237	0.963 ± 0.025 mPa·s
298.15 K, x2 = 0.8181	1.256 ± 0.033 mPa·s
298.15 K, x2 = 0.9031	1.571 ± 0.041 mPa·s
298.15 K, x2 = 0.955	1.803 ± 0.047 mPa·s
303 K, x1 = 0.0983	1.07 ± 0.11 mPa·s
303 K, x1 = 0.2085	0.86 ± 0.09 mPa·s
303 K, x1 = 0.2911	0.71 ± 0.07 mPa·s
303 K, x1 = 0.3728	0.58 ± 0.06 mPa·s
303 K, x1 = 0.5014	0.56 ± 0.06 mPa·s
303 K, x1 = 0.5976	0.54 ± 0.06 mPa·s
303 K, x1 = 0.7483	0.48 ± 0.05 mPa·s
303 K, x1 = 0.8001	0.47 ± 0.05 mPa·s
303 K, x1 = 0.8939	0.45 ± 0.05 mPa·s
308.15 K, x1 = 0.05	1.313 ± 0.016 mPa·s
308.15 K, x1 = 0.1	1.142 ± 0.015 mPa·s
308.15 K, x1 = 0.15	1.009 ± 0.014 mPa·s
308.15 K, x1 = 0.2001	0.909 ± 0.014 mPa·s
308.15 K, x1 = 0.25	0.824 ± 0.014 mPa·s
308.15 K, x1 = 0.3	0.755 ± 0.013 mPa·s
308.15 K, x1 = 0.35	0.697 ± 0.013 mPa·s
308.15 K, x1 = 0.4	0.646 ± 0.013 mPa·s
308.15 K, x1 = 0.45	0.606 ± 0.013 mPa·s
308.15 K, x1 = 0.5	0.576 ± 0.013 mPa·s
308.15 K, x1 = 0.55	0.549 ± 0.013 mPa·s
308.15 K, x1 = 0.6	0.526 ± 0.013 mPa·s
308.15 K, x1 = 0.65	0.507 ± 0.013 mPa·s
308.15 K, x1 = 0.7	0.489 ± 0.013 mPa·s
308.15 K, x1 = 0.75	0.474 ± 0.013 mPa·s
308.15 K, x1 = 0.8	0.461 ± 0.013 mPa·s
308.15 K, x1 = 0.85	0.452 ± 0.013 mPa·s
308.15 K, x1 = 0.9	0.444 ± 0.012 mPa·s
308.15 K, x1 = 0.95	0.44 ± 0.012 mPa·s
313 K, x1 = 0.0983	0.86 ± 0.09 mPa·s
313 K, x1 = 0.2085	0.7 ± 0.07 mPa·s
313 K, x1 = 0.2911	0.61 ± 0.07 mPa·s
313 K, x1 = 0.3728	0.54 ± 0.06 mPa·s
313 K, x1 = 0.5014	0.48 ± 0.05 mPa·s
313 K, x1 = 0.5976	0.46 ± 0.05 mPa·s
313 K, x1 = 0.7483	0.45 ± 0.05 mPa·s
313 K, x1 = 0.8001	0.43 ± 0.05 mPa·s
313 K, x1 = 0.8939	0.43 ± 0.05 mPa·s
